Measured values taken from patent US20110028517A1 (LABORATORIOS DEL DR. ESTEVE, S.A., priority 2008, published 2011).

Experiments:
Human CB1 receptor [1] = target: T1, Human CB1 receptor (Homo sapiens, UniProt P21554); test: In-vitro determination of functional activity to human CB1-receptors ([35S]GTPγS binding in presence of Win 55,212-2, CHO-CB1 membranes); assay type: biochemical; parameters: expressed in transfected cells; host or cells: CHO cells, stably transfected, membranes; conditions: for functional behaviour at CB1 receptor (inverse agonist or neutral antagonist): [35S]GTPγS binding relative to basal levels, FIG. 1
Method: The binding of [^35S]GTPγS was carried out using a modification of previously published methods Meschler, J. P., Kraichely, D. M., Wilken, G. M AND Howlet, A. C. […] Eur. J. Pharm. Sci. 2004, 23 (3): 233-43.
Human CB1 membranes were prepared from stably transfected CHO cells. Incubation mixtures consisted of CHO-CB1 membrane preparation at a final concentration of 15 μg of protein, compound (dose-response curve between 3 nM and 3 μM, final well concentration), Win 55,212-2 (0.3 μM final well concentration) and binding buffer (50 mM HEPES, pH 7.4, 100 mM KCl, 5 mM MgCl2, 1 mM EDTA, 0.1% wt/vol bovine serum albumin, 5 μM GDP, saponin 10 μg/ml). Subsequently [^35S]GTPγS (0.25 nM) was added, samples were incubated for 60 minutes at 30° C. and finally filtered. Radioactivity on filters was measured with Wallac Microbeta Trilux. Data analysis was performed by using Graph Pad Prism version 3.03 for windows. The bottom plateau of the analyzed sigmoid curves is considered the Emin (Minimal efficacy) value and values of Emin<0 represents inverse agonism of the compounds.

[2] = Selectivity for 170 targets
[3] = target: T2, cannabinoid CB1 receptors present in the central nervous system (Rattus norvegicus, UniProt P20272); test: Prevention of hypothermia produced by CP55,940 in rat; assay type: in vivo; conditions: CP55,940 0.3 mg/kg ip, FIG. 4
T2 construct: from tissue; host or cells: live Wistar rat, central nervous system
Method: Male Wistar rats (220-270 g) were used. Rats were fed ad libitum with pellet standard rodent chow. Animals were maintained on a 12/12 hour light-dark cycle. They were randomized into groups for compound and vehicle dosing. Animals were first dosed, p.o., with vehicle (saline +1 drop of tween) or with the (4S,5S)-5-(4-chlorophenyl)-1-(2,4-dichlorophenyl)-N-(cis-2,6-dimethylpiperidin-1-yl)-4-methyl-4,5-dihydro-1H-pyrazole-3-carboxamide enantiomer (10 or 30 mg/kg) 60 minutes prior to the second administration, i.p., with vehicle or CP 55,940 (0.3 mg/kg). Body temperature was measured using a rectal probe connected to a thermometer (CIBERTEC). Measurements were performed at T=−60, 0, 60, 120 and 240 minutes following CP55,940 administration. CP,55,940 was administered just after the measurement of Body temperature at T=0.
Data were analyzed by a two-way (treatment, time) analysis of variance (ANOVA) with repeated measure on the time factor. A covariate was included to adjust for differences between treatment groups at baseline (Time 0). Comparisons between average treatment profiles were performed by defining appropriate tests for contrasts within the ANOVA analysis. A value of P<0.05 was considered significant. Data analysis was carried out with the SAS/STAT® release 9.1 statistical package (SAS Institute Inc., Cary, N.C.).

[4] = target: T3, CB1 receptors present in the CNS (Mus musculus, UniProt P47746); test: Reversion of the analgesic effect of CP-55,940 in tail flick test in mice; assay type: in vivo; conditions: for reversion of the analgesic effect of CP-55,940: CP-55,940 0.3 mg/kg subcutaneous, FIG. 5
T3 construct: from tissue; host or cells: live CD1 mouse, central nervous system
Method: (§1) Male CD1 mice (Charles River Laboratories), weighting 30 to 40 g (7-8 weeks old) and Male Wistar rats (Charles River Laboratories), weighting 260-300 g (7-8 weeks old) at the time of experiment, were housed in a controlled environment. Temperature was maintained at 22±2° C. on a 12-h light/dark cycle (On at 07:00 h and Off at 19:00 h) and food and water were available ad libitum. The experiments were performed during the light phase. The number of mice ranged from 4 to 15 per group in each individual experiment. Animals were always handled in accordance with ethical principles for the evaluation of pain in conscious animals (Zimmerman, 1983) and with the European Communities Council Directive of 24 November 1986 (86/609/ECC), and received approval by the local Ethical Committee.
CP-55,940 (Ref. 0949, Tocris; Wiley et al., 1995) was administrated by subcutaneous route at 0.3 mg/kg in a volume of 5 ml/kg in mice and by intraperitoneal route at 0.5 mg/kg in a volume of 2 ml/kg in rat. NESS-0327 (Ruiu et al., 2003) was administrated by intraperitoneal route at 0.3 mg/kg and 1 mg/kg in a volume of 10 ml/kg in mice. […] All compounds were dissolved using HPMC (Hydroxypropyl methyl cellulose) which was prepared at a concentration of 0.5% in Milli-Q water.
The tail flick test was used to evaluate the antinociceptive effect of compounds. The test was performed as previously described (Moncada et al., 2003 and Robles et al., 1996). A noxious beam of light was focused on the mice tail about 4 cm from its tip, and the tail flick latency was recorded automatically to the nearest 0.1 s. The intensity of the radiant heat source was adjusted to produce latencies between 3-5 sec in vehicle treated mice and 2-4 sec in vehicle treated rats. In order to minimize cutaneous injuries a cut-off time of 10 s was used.
Mice were tested 60 min after subcutaneous administration of CP-55,940 (0.3 mg/kg) or vehicle (HPMC 0.5%).
Data are presented as tail flick latency responses in sec ±S.E.M and as percentage of analgesia ±S.E.M. The values in the control group were compared against those obtained in the treated groups. Statistical analysis to test intergroup comparisons was made using an initial one-way analysis of variant followed by the Newman-Keuls multiple comparison test. The level of significance was set at p<0.05.

[5] = target: T4, CB1 receptors present in the CNS (Rattus norvegicus, UniProt P20272); test: Reversion of the analgesic effect of CP-55,940 in tail flick test in rat; assay type: in vivo; conditions: 10 mg/kg oral
T4 construct: from tissue; host or cells: live Wistar rat, central nervous system
Method: as §1
CP-55,940 (Ref. 0949, Tocris; Wiley et al., 1995) was administrated by subcutaneous route at 0.3 mg/kg in a volume of 5 ml/kg in mice and by intraperitoneal route at 0.5 mg/kg in a volume of 2 ml/kg in rat. NESS-0327 (Ruiu et al., 2003) was administrated by intraperitoneal route at 0.3 mg/kg and 1 mg/kg in a volume of 10 ml/kg in mice. […]
The tail flick test was used to evaluate the antinociceptive effect of compounds. […] A noxious beam of light was focused on the mice tail about 4 cm from its tip, and the tail flick latency was recorded automatically to the nearest 0.1 s. […]

Human CB1 receptor [6] = target: T1, Human CB1 receptor; test: In-vitro determination of affinity to human CB1-receptors ([3H] (+)-CP55,940 radioligand binding, HEK-293 membranes); parameters: expressed in transfected cells; conditions: [3H] (+)-CP55,940 0.45 nM
Method: Binding affinity for CB1 receptor was evaluated according to a modification of the Govaerts S J, Hermans E and Lambert D M. “Comparison of cannabinoid ligand affinities and efficacies in murine tissues and in transfected cells expressing human recombinant cannabinoid receptors”. Eur. J. Pharm. Sci. 2004, 23 (3): 233-43 described method. Human CB1 receptor was transfected into HEK-293 cells and a stable clone obtained and membranes prepared from this clone was used as the membrane source for radioligand binding studies. [3H] (+)-CP55,940 was used as radioligand at a final concentration of 0.45 nM. The incubation buffer was Tris-HCl 50 mM, MgCl2 5 mM, EDTA 1 mM, BSA 0.5%, pH 7.4 and the non-specific binding was determined with 10 μM of HU210. Samples were incubated at 37° C. for 60 min before filtration. Radioactivity on filters was measured with Wallac Winspectral 1414 counter by liquid scintillation in Ecoscint H (National Diagnostics, U.K.).

T1 sequence (P21554 whole entry): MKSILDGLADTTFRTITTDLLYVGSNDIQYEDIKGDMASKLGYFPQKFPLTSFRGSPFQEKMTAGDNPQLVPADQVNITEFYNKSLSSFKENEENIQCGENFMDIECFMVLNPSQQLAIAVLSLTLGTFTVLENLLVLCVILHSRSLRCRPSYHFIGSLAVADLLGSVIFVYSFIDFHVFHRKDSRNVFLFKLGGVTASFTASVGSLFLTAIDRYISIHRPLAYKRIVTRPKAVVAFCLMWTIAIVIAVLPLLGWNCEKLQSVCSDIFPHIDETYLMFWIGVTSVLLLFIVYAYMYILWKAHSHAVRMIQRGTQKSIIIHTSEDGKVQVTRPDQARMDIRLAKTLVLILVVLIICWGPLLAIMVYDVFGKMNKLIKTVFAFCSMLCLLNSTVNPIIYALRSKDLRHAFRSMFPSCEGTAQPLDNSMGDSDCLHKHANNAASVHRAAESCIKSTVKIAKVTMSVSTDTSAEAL
T3 sequence (P47746 whole entry): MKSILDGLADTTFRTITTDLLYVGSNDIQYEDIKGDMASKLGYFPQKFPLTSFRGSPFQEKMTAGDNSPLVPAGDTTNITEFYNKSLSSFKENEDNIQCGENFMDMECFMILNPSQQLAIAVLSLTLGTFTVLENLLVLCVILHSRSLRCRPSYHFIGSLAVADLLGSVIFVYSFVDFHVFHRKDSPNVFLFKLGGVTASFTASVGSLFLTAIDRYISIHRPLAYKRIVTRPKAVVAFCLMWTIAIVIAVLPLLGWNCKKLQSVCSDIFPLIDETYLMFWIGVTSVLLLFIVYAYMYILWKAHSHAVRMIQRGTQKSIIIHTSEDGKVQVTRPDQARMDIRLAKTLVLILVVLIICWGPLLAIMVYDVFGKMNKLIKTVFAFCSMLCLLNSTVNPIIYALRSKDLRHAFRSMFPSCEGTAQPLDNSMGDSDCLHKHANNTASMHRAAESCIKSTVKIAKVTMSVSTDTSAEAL
T4 sequence (P20272 whole entry): as the sequence (P47746 whole entry) above, with D95E counted along it
T2 sequence (P20272 whole entry): as the sequence (P47746 whole entry) above, with D95E counted along it

| SMILES | functional behaviour at CB1 receptor (inverse agonist or neutral antagonist) (Human CB1 receptor [1]) | functional behaviour at CB1 receptor (inverse agonist or neutral antagonist) (Human CB1 receptor [1]; listed as racemate compound) | selective for 170 targets [2] | prevention of the hypothermia produced by CP55,940 ([3]; 10 mg/Kg p.o.) | prevention of the hypothermia produced by CP55,940 ([3]; 30 mg/Kg p.o.) | effect by itself in tail flick test ([4]; 5 mg/kg intraperitoneal, without CP-55,940) | effect by itself in tail flick test ([4]; 5 mg/kg intraperitoneal, without CP-55,940, listed as (4S,5S)-enantiomer) | effect by itself in tail flick test ([5]; without CP-55,940) | effect by itself in tail flick test ([5]; without CP-55,940, listed as (4S,5S)-enantiomer) | Ki (Human CB1 receptor [6]) | functional behaviour at CB1 receptor (inverse agonist or neutral antagonist) (Human CB1 receptor [1]; listed as (4S,5S) compound) | Emin (Minimal efficacy) (Human CB1 receptor [1]; [35S]GTPγS binding, Win 55,212-2 0.3 μM, Emin<0 represents inverse agonism) | IC50 (Human CB1 receptor [1]; [35S]GTPγS binding, Win 55,212-2 0.3 μM, read-out: pIC50 (potency) (converted)) | reversion of the analgesic effect of CP-55,940 ([4]; 0.3 mg/kg intraperitoneal) | effect by itself in tail flick test ([4]; 0.3 mg/kg intraperitoneal, without CP-55,940) | reversion of the analgesic effect of CP-55,940 ([4]; 1 mg/kg intraperitoneal) | effect by itself in tail flick test ([4]; 1 mg/kg intraperitoneal, without CP-55,940) |
| --- | --- | --- | --- | --- | --- | --- | --- | --- | --- | --- | --- | --- | --- | --- | --- | --- | --- |
| CC1CCCC(C)N1NC(=O)C1=NN(c2ccc(Cl)cc2Cl)[C@H](c2ccc(Cl)cc2)[C@@H]1C (mixture of isomers) [racemate cis-compound, cis-5-(4-chlorophenyl)-1-(2,4-dichlorophenyl)-N-(2,6-dimethylpiperidin-1-yl)-4-methyl-4,5-dihydro-1H-pyrazole-3-carboxamide, reference compound] | behave as inverse agonists | CB1 inverse agonism |  |  |  |  |  |  |  |  |  |  |  |  |  |  |  |
| C[C@@H]1C(C(=O)NN2[C@H](C)CCC[C@@H]2C)=NN(c2ccc(Cl)cc2Cl)[C@@H]1c1ccc(Cl)cc1 [(4S,5S)-5-(4-chlorophenyl)-1-(2,4-dichlorophenyl)-N-(cis-2,6-dimethylpiperidin-1-yl)-4-methyl-4,5-dihydro-1H-pyrazole-3-carboxamide] | neutral antagonist |  | 99% | does not significantly prevent | does not significantly prevent | Neither Rimonabant (5 mg/kg) nor the (4S,5S)-5-(4-chlorophenyl)-1-(2,4-dichlorophenyl)-N-(cis-2,6-dimethylpiperidin-1-yl)-4-methyl-4,5-dihydro-1H-pyrazole-3-carboxamide enantiomer (5 mg/kg) showed an effect by themselves | Neither Rimonabant (5 mg/kg) nor the(4S,5S)-enantiomer (5 mg/kg) showed an effect by themselves | Neither Rimonabant (10 mg/kg) nor the ((4S,5S)-5-(4-chlorophenyl)-1-(2,4-dichlorophenyl)-N-(cis-2,6-dimethylpiperidin-1-yl)-4-methyl-4,5-dihydro-1H-pyrazole-3-carboxamide enantiomer (10 mg/kg) showed an effect by themselves | Neither Rimonabant (10 mg/kg) nor (4S,5S)-enantiomer (10 mg/kg) showed an effect by themselves | 27 ± 10 nM | behaves as a neutral antagonist | −1±8 | 30.2 nM |  |  |  |  |
| O=C(NN1CCCCC1)c1nn(-c2ccc(Cl)cc2Cl)c2c1CCCc1cc(Cl)ccc1-2 [NESS-0327] |  |  |  |  |  |  |  |  |  |  |  |  |  | not at 0.3 mg/kg | Neither NESS-0327 (0.3 mg/kg) nor (1 mg/kg) showed an effect by themselves | significantly inhibited | Neither NESS-0327 (0.3 mg/kg) nor (1 mg/kg) showed an effect by themselves |
